In ChEMBL document CHEMBL1201862, “PubChem BioAssay data set” (2004):
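48-hour exposure; five concentrations; linearly interpolated endpoints. The concentration for 50% growth inhibition is given as GI50.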 Active and inactive are the calls of the source. Rule as the data show it: active = GI50 up to about 1.1 µM and inactive = higher.

Legend:
Assay in all cases: NCI-60 cell line screen, 48 h
HCC 2998 = test system: HCC 2998
SW-620 = test system: SW-620
UACC-62 = test system: UACC-62
HT-29 = test system: HT-29
UO-31 = test system: UO-31
HOP-62 = test system: HOP-62
M14 = test system: M14
OVCAR-3 = test system: OVCAR-3
A549 = test system: A549
OVCAR-4 = test system: OVCAR-4
SN12C = test system: SN12C
SK-OV-3 = test system: SK-OV-3
RXF 393 = test system: RXF 393
A498 = test system: A498
U-251 = test system: U-251
LOX IMVI = test system: LOX IMVI
SR = test system: SR
OVCAR-5 = test system: OVCAR-5
TK-10 = test system: TK-10
Malme-3M = test system: Malme-3M

Measured: GI50

CN(C)CN1C(=O)S/C(=C2\C(=O)N(CN(C)C)c3ccccc32)C1=O
inactive: HCC 2998 26.8 µM | SW-620 30.6 µM | UACC-62 65.3 µM | HT-29 42.4 µM | UO-31 31.3 µM | HOP-62 41.6 µM | M14 21.7 µM | OVCAR-3 50.2 µM | A549 45.8 µM | OVCAR-4 55.1 µM | SN12C 23.7 µM | SK-OV-3 > 100 µM | RXF 393 19.9 µM | A498 > 100 µM | U-251 40.6 µM | LOX IMVI 21.2 µM | SR 18.9 µM | OVCAR-5 > 100 µM | TK-10 46.3 µM

CC(=O)OCC1OC(n2c3c(c(-c4ccc(C)cc4)c(C#N)c2=S)C(=O)CC(C)(C)C3)C(OC(C)=O)C(OC(C)=O)C1OC(C)=O (configuration not stated)
inactive: SW-620 46 µM | UACC-62 18.9 µM | HT-29 27.3 µM | Malme-3M > 100 µM | UO-31 58.5 µM | HOP-62 62.5 µM | M14 35.5 µM | OVCAR-3 70 µM | A549 50.4 µM | OVCAR-4 > 10 µM | SN12C 17.6 µM | RXF 393 23.3 µM | A498 32.1 µM | U-251 30.3 µM | LOX IMVI 13.3 µM | SR 24.1 µM | OVCAR-5 > 100 µM | TK-10 > 100 µM

O=c1oc2ccccc2cc1-c1csc(Nc2ccc(F)cc2)n1
inactive: HCC 2998 5.48 µM | SW-620 5 µM | UACC-62 12.6 µM | HT-29 3.43 µM | UO-31 2.33 µM | HOP-62 2.99 µM | M14 4.25 µM | OVCAR-3 6.55 µM | A549 1.67 µM | OVCAR-4 7.31 µM | SN12C 3.01 µM | SK-OV-3 5.77 µM | RXF 393 6.56 µM | A498 1.29 µM | U-251 2.83 µM | LOX IMVI 4.7 µM | SR 2.36 µM | OVCAR-5 8.38 µM | TK-10 2.98 µM

CCNC(C)(C)C(SS)c1ccc(Br)cc1 (configuration not stated)
inactive: SW-620 22.4 µM | UACC-62 88.9 µM | HT-29 25.8 µM | Malme-3M > 100 µM | UO-31 79.1 µM | HOP-62 63.1 µM | M14 59.2 µM | OVCAR-3 46.6 µM | A549 > 100 µM | OVCAR-4 44.5 µM | SN12C 32.6 µM | SK-OV-3 > 100 µM | RXF 393 46 µM | A498 > 100 µM | U-251 44.3 µM | LOX IMVI 26.1 µM | SR 30.4 µM | OVCAR-5 > 100 µM | TK-10 53.3 µM

Cn1c(=O)n(C2(C)CSC2)c2ccccc21
inactive: HCC 2998 > 100 µM | SW-620 > 100 µM | UACC-62 > 100 µM | HT-29 > 100 µM | UO-31 > 100 µM | HOP-62 > 100 µM | M14 > 100 µM | A549 > 100 µM | OVCAR-4 > 100 µM | SN12C > 100 µM | SK-OV-3 > 100 µM | RXF 393 > 100 µM | A498 > 100 µM | U-251 > 100 µM | LOX IMVI > 100 µM | SR > 100 µM | OVCAR-5 > 100 µM | TK-10 > 100 µM

Nc1ncn(C2C=C(CO)C(O)C2O)c(=O)n1 (configuration not stated)
inactive: HCC 2998 89.7 µM | SW-620 57.5 µM | UACC-62 > 100 µM | Malme-3M > 100 µM | UO-31 92.7 µM | HOP-62 35.1 µM | M14 > 100 µM | OVCAR-3 > 100 µM | A549 52.4 µM | OVCAR-4 85.9 µM | SN12C 32.4 µM | SK-OV-3 > 100 µM | RXF 393 > 100 µM | A498 > 100 µM | U-251 > 100 µM | SR 26.7 µM | TK-10 > 100 µM

CCN(CC)C(=S)Oc1cc2oc(=O)cc(C)c2cc1Cl
inactive: HCC 2998 52.7 µM | SW-620 > 100 µM | UACC-62 26.9 µM | HT-29 > 100 µM | UO-31 > 100 µM | HOP-62 54 µM | M14 > 100 µM | OVCAR-3 > 100 µM | A549 > 100 µM | OVCAR-4 > 100 µM | SN12C > 100 µM | RXF 393 25.5 µM | A498 > 100 µM | U-251 42.2 µM | LOX IMVI 68.7 µM | SR > 100 µM | OVCAR-5 > 100 µM | TK-10 > 100 µM

CNC(=O)C1CCc2nnc(-c3ccccc3)n21 (configuration not stated)
inactive: HCC 2998 > 100 µM | SW-620 > 100 µM | UACC-62 > 100 µM | Malme-3M > 100 µM | UO-31 > 100 µM | HOP-62 > 100 µM | M14 > 100 µM | OVCAR-3 > 100 µM | A549 > 100 µM | OVCAR-4 > 100 µM | SN12C > 100 µM | SK-OV-3 > 100 µM | RXF 393 > 100 µM | A498 > 100 µM | U-251 > 100 µM | SR > 100 µM | TK-10 > 100 µM

C=C1C(=O)OC2/C=C(/C)C(OC(C)=O)C/C=C(\C)C(OC(=O)C3(C)OC3C)C(O)C12 (configuration not stated)
inactive: HCC 2998 > 100 µM | SW-620 42.4 µM | UACC-62 > 100 µM | HT-29 > 100 µM | HOP-62 > 100 µM | M14 > 100 µM | OVCAR-3 > 100 µM | A549 > 100 µM | OVCAR-4 > 100 µM | SN12C > 100 µM | SK-OV-3 > 100 µM | RXF 393 > 100 µM | A498 > 100 µM | U-251 > 100 µM | LOX IMVI 30.8 µM | SR 39.4 µM | OVCAR-5 > 100 µM | TK-10 > 100 µM

N=C(N)SCc1ccc2c(c1)S(=O)(=O)c1ccccc1O2
inactive: HCC 2998 22.1 µM | SW-620 17.8 µM | UACC-62 15.8 µM | HT-29 15.6 µM | UO-31 15.2 µM | HOP-62 19 µM | M14 20.5 µM | OVCAR-3 17 µM | A549 19 µM | OVCAR-4 22.3 µM | SN12C 37.5 µM | SK-OV-3 20.8 µM | RXF 393 21.2 µM | A498 17.5 µM | U-251 18.1 µM | LOX IMVI 19.4 µM | SR 23 µM | OVCAR-5 22 µM | TK-10 15.7 µM

CCN(CC)CCCNc1ccc([N+](=O)[O-])c2nc3ccc(OC)cc3c(N)c12
inactive: SW-620 1.49 µM | UACC-62 > 10 µM | HT-29 1.77 µM | Malme-3M > 10 µM | UO-31 > 5.58 µM | HOP-62 > 10 µM | M14 > 4.41 µM | OVCAR-3 > 4.46 µM | A549 1.86 µM | OVCAR-4 1.92 µM | SN12C 2.07 µM | SK-OV-3 > 3.92 µM | RXF 393 > 10 µM | A498 > 10 µM | U-251 > 10 µM | LOX IMVI 1.7 µM | SR 1.51 µM | OVCAR-5 > 10 µM | TK-10 > 10 µM

N#Cc1c(N)nc2c(c1-c1ccc(Br)cc1)CSc1ccccc1-2
inactive: SW-620 83.4 µM | UACC-62 21.4 µM | HT-29 34.6 µM | Malme-3M > 100 µM | UO-31 33.8 µM | HOP-62 50.1 µM | M14 41.7 µM | OVCAR-3 30.4 µM | A549 37.2 µM | OVCAR-4 24.6 µM | SN12C 30 µM | SK-OV-3 29.6 µM | RXF 393 20.1 µM | A498 > 100 µM | U-251 34.4 µM | LOX IMVI 28.6 µM | SR 68.4 µM | TK-10 73.1 µM

Cc1cc(N(CCC#N)CCC#N)ccc1C(/N=N/c1ccccc1)=N\NC(=O)c1cc(Cl)ccc1O
inactive: HCC 2998 15.8 µM | UACC-62 7.71 µM | HT-29 15.5 µM | Malme-3M 27.9 µM | UO-31 14.8 µM | HOP-62 41.8 µM | M14 26.4 µM | OVCAR-3 18 µM | A549 29.4 µM | OVCAR-4 20.7 µM | SN12C 26.5 µM | SK-OV-3 71.4 µM | RXF 393 23.3 µM | A498 59.2 µM | U-251 33.1 µM | SR 13.5 µM | OVCAR-5 > 10 µM | TK-10 14.9 µM

O=[N+]([O-])c1ccc(Cl)c(C2SCc3nc4ccccc4n32)c1 (configuration not stated)
inactive: HCC 2998 71.4 µM | SW-620 35 µM | UACC-62 39.9 µM | HT-29 36 µM | Malme-3M 44.1 µM | UO-31 17.3 µM | OVCAR-3 36.6 µM | A549 44.9 µM | SN12C 43.6 µM | SK-OV-3 36.6 µM | RXF 393 33 µM | A498 32.3 µM | U-251 41.8 µM | SR 32.1 µM | OVCAR-5 27.4 µM | TK-10 64.6 µM

O=C(O)CCCc1ccc2ccccc2c1
inactive: HCC 2998 > 100 µM | SW-620 > 100 µM | UACC-62 > 100 µM | HT-29 > 100 µM | UO-31 > 100 µM | HOP-62 > 100 µM | M14 > 100 µM | OVCAR-3 > 100 µM | A549 > 100 µM | OVCAR-4 > 100 µM | SN12C > 100 µM | SK-OV-3 > 100 µM | RXF 393 > 100 µM | A498 > 100 µM | U-251 > 100 µM | LOX IMVI > 100 µM | SR 97.9 µM | OVCAR-5 > 100 µM | TK-10 > 100 µM
